Assay results published in ChEMBL document CHEMBL5303304, “EUbOPEN Chemogenomics Library - IncuCyte” (2023).

Columns and labels:
Type in all cases: toxicity, cell-based
Fibroblast = experiment: Incucyte cell viability with human fibroblast; details: 10 µM, compound concentration 10 uM
HEK-293T = experiment: Incucyte cell viability with HEK293T; details: human, 10 µM, compound concentration 10 uM
U2OS = experiment: Incucyte cell viability with U2OS; details: human, 10 µM, compound concentration 10 uM
Also: unitless GR value; below 1 slowed growth and below 0 cell loss.

Row | Structure (SMILES) | Growth Rate (Fibroblast; 24 h, replicate number 2) | Growth Rate (HEK-293T; 6 h, replicate number 1) | Growth Rate (HEK-293T; 6 h, replicate number 2) | Growth Rate (HEK-293T; 12 h, replicate number 2) | Growth Rate (HEK-293T; 18 h, replicate number 2) | Growth Rate (HEK-293T; 24 h, replicate number 2) | Growth Rate (U2OS; 0 h, replicate number 1) | Growth Rate (U2OS; 6 h, replicate number 1) | Growth Rate (U2OS; 6 h, replicate number 2) | Growth Rate (U2OS; 12 h, replicate number 1) | Growth Rate (U2OS; 18 h, replicate number 1) | Growth Rate (U2OS; 18 h, replicate number 2) | Growth Rate (Fibroblast; 6 h, replicate number 2) | Growth Rate (Fibroblast; 12 h, replicate number 2) | Growth Rate (Fibroblast; 18 h, replicate number 2) | Growth Rate (HEK-293T; 12 h, replicate number 1) | Growth Rate (HEK-293T; 18 h, replicate number 1) | Growth Rate (HEK-293T; 24 h, replicate number 1) | Growth Rate (U2OS; 12 h, replicate number 2) | Growth Rate (U2OS; 24 h, replicate number 2) | other results
1 | Cc1nccn1CC1CCc2c(c3ccccc3n2C)C1=O.Cl (stereo not drawn) | 0.9 | 0.82 | 0.6 | 0.75 | 0.79 | 0.87 | -0.28 | 0.77 | 0.44 | 0.96 | 0.91 | 0.88 | – | – | – | – | – | – | – | – | –
2 | FC(F)(F)c1ccccc1-c1cc(C(F)(F)F)c2[nH]c(C3=NOC4(CCCCC4)C3)nc2c1 | -0.03 | 0.12 | -0.15 | -0.05 | -0.02 | 0 | – | – | – | – | – | – | -0.79 | -0.41 | -0.08 | -0.3 | -0.22 | -0.23 | 0.98 | 0.94 | Growth Rate (U2OS; 0 h, replicate number 2): -0.12
3 | COc1cc(N)c(Cl)cc1C(=O)NC1CN2CCC1CC2.Cl (stereo not drawn) | – | -0.18 | -0.12 | 0.19 | 0.29 | 0.38 | – | 0.67 | 0.95 | 0.95 | – | 1 | -0.28 | – | – | 0.31 | 0.18 | 0.31 | – | – | Growth Rate (Fibroblast; 0 h, replicate number 2): -0.73; Growth Rate (Fibroblast; 6 h, replicate number 1): -0.82; Growth Rate (Fibroblast; 12 h, replicate number 1): 0.48; Growth Rate (U2OS; 0 h, replicate number 2): -0.2
4 | COc1c(C(=O)/C=C/c2ccccc2)c(O)c(OC)c2occc12 | 0.71 | -0.45 | -0.38 | 0.28 | 0.53 | 0.75 | -0.43 | 0.86 | 0.76 | 0.64 | 0.71 | 0.55 | -0.26 | 0.35 | 0.84 | 0.27 | 0.86 | – | 0.6 | 0.83 | Growth Rate (Fibroblast; 12 h, replicate number 1): -0.31; Growth Rate (Fibroblast; 18 h, replicate number 1): 0; Growth Rate (Fibroblast; 24 h, replicate number 1): 0.86; Growth Rate (U2OS; 0 h, replicate number 2): -0.14; Growth Rate (U2OS; 24 h, replicate number 1): 0.78
5 | O=C1CSC(=O)N1C(CCc1ccncc1)COc1ccc(-c2cccc([N+](=O)[O-])c2)cc1 (stereo not drawn) | – | -0.06 | 0.02 | 0.27 | – | 0.65 | -0.68 | 0.3 | – | 0.76 | 0.8 | 0.95 | – | – | – | 0.24 | 0.48 | 0.87 | 0.94 | 1 | Growth Rate (Fibroblast; 0 h, replicate number 1): 0.71; Growth Rate (Fibroblast; 0 h, replicate number 2): -0.87; Growth Rate (Fibroblast; 18 h, replicate number 1): 0.92; Growth Rate (Fibroblast; 24 h, replicate number 1): 0.45; Growth Rate (U2OS; 0 h, replicate number 2): -0.97; Growth Rate (U2OS; 24 h, replicate number 1): 0.89
6 | O=c1c(Br)ccc2n1C[C@@H]1CNC[C@H]2C1 | 0.89 | 0.59 | – | – | – | – | – | – | 0.92 | – | – | – | – | – | – | 0.4 | 0.61 | 0.89 | – | – | Growth Rate (Fibroblast; 0 h, replicate number 1): 0.52; Growth Rate (Fibroblast; 0 h, replicate number 2): -0.26; Growth Rate (Fibroblast; 6 h, replicate number 1): -0.94
7 | CC(CNS(=O)(=O)C(C)C)c1ccc(-c2ccc(C#N)cc2)cc1 (stereo not drawn) | 0.51 | -0.35 | – | -0.01 | 0.16 | 0.22 | – | – | – | 0.81 | 0.83 | 0.73 | -0.76 | 0.02 | 0.43 | -0.18 | 0 | 0.05 | 0.82 | 0.84 | Growth Rate (Fibroblast; 0 h, replicate number 1): 0.04; Growth Rate (Fibroblast; 6 h, replicate number 1): 0.92; Growth Rate (Fibroblast; 12 h, replicate number 1): -0.89; Growth Rate (Fibroblast; 18 h, replicate number 1): -0.2; Growth Rate (Fibroblast; 24 h, replicate number 1): 0.14; Growth Rate (U2OS; 0 h, replicate number 2): 0.02; Growth Rate (U2OS; 24 h, replicate number 1): 0.9
8 | CC(C)(O)c1ccc2c(c1)ncn2-c1cccc(-c2ccccc2C#N)c1 | – | 0.78 | -0.24 | 0.2 | 0.48 | 0.54 | 0.93 | – | – | – | – | – | -0.67 | 0.33 | 0.52 | 0.77 | 0.65 | 0.73 | – | – | Growth Rate (Fibroblast; 0 h, replicate number 1): 0.6; Growth Rate (Fibroblast; 0 h, replicate number 2): -0.48; Growth Rate (Fibroblast; 12 h, replicate number 1): 0.43; Growth Rate (Fibroblast; 18 h, replicate number 1): 0.64; Growth Rate (Fibroblast; 24 h, replicate number 1): 0.28; Growth Rate (U2OS; 0 h, replicate number 2): 0.83
9 | Cc1c(C(=O)Nc2cccc(C(F)(F)F)c2)cc(-c2ccccc2)n1CCCN1CCOCC1.Cl | 0.84 | -0.17 | -0.54 | 0.01 | 0.27 | 0.37 | 0.27 | – | – | – | – | 0.88 | 0.1 | 0.65 | 0.73 | 0.11 | 0.32 | 0.46 | 0.89 | 0.95 | Growth Rate (Fibroblast; 6 h, replicate number 1): -0.95
10 | Cl.Cl.O=[N+]([O-])c1ccc(CN2CCOCCOCCN(Cc3ccc([N+](=O)[O-])cc3)CCOCC2)cc1 | 0.84 | -0.5 | -0.29 | 0.2 | 0.39 | 0.52 | – | -0.05 | 0.19 | 0.28 | 0.69 | 0.56 | -0.71 | 0.3 | 0.63 | 0.04 | 0.13 | 0.2 | 0.21 | 0.76 | Growth Rate (Fibroblast; 0 h, replicate number 1): 0.74; Growth Rate (Fibroblast; 12 h, replicate number 1): -0.95; Growth Rate (Fibroblast; 18 h, replicate number 1): -0.4; Growth Rate (Fibroblast; 24 h, replicate number 1): -0.06; Growth Rate (U2OS; 24 h, replicate number 1): 0.67
11 | O=C(Nc1cccc(C(F)(F)F)c1)c1cc(Cl)ccc1O | -0.46 | -0.8 | -0.84 | -0.56 | -0.41 | -0.3 | -0.07 | 0.96 | 0.71 | 0.63 | 0.4 | 0.41 | -0.88 | -0.65 | -0.55 | -0.85 | -0.77 | -0.67 | 0.59 | 0.27 | Growth Rate (Fibroblast; 6 h, replicate number 1): -0.98; Growth Rate (Fibroblast; 18 h, replicate number 1): 0.8; Growth Rate (Fibroblast; 24 h, replicate number 1): 0.08; Growth Rate (U2OS; 24 h, replicate number 1): 0.28
